Numbers after ± are expanded uncertainties.
Settings: Liquid, Closed cell (Static) method

Row | Structure (SMILES) | vapor or sublimation pressure (303.15 K) | vapor or sublimation pressure (313.15 K) | vapor or sublimation pressure (323.15 K) | vapor or sublimation pressure (333.15 K) | vapor or sublimation pressure (343.15 K) | vapor or sublimation pressure (353.15 K)
1 | F/C=C\C(F)(F)F [(Z)-1,3,3,3-tetrafluoro-1-propene] | 210.6 ± 1.1 kPa | 290.7 ± 1.1 kPa | 391.8 ± 1.2 kPa | 517.4 ± 1.3 kPa | 671.3 ± 1.4 kPa | 859.2 ± 1.6 kPa
2 | CC(C)C [2-methylpropane] | 404.5 ± 1.2 kPa | 530.9 ± 1.3 kPa | 684.6 ± 1.4 kPa | 869 ± 1.7 kPa | 1087.4 ± 1.9 kPa | 1343.4 ± 2.3 kPa

From the NIST ThermoML archive (doi:10.1016/j.jct.2016.08.031)
